Reference: article PMC11091702, “CD38 restrains the activity of extracellular cGAMP in a model of multiple myeloma” (iScience, 2024)
Where two headings read alike, the source gives them in different places. Values belong to the compound of their own block, whether it stands above or below them.

Tests used:
CD38 (rhCD38) = target: T1, CD38 (rhCD38) (Homo sapiens, UniProt P28907); assay: tryptophan fluorescence quenching titration; format: binding
T1 construct: ectodomain of recombinant human CD38 (His-tagged)
T1 sequence (P28907 45-300): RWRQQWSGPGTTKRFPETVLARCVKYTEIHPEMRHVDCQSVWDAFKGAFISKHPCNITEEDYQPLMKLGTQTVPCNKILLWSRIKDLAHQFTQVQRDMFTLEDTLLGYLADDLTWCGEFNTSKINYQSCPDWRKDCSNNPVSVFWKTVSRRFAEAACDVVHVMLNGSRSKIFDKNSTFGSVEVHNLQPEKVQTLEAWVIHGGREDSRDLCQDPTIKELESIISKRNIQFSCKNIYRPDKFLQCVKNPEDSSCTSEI

[1] = system: T2, NC(=O)c1ccc[n+]([C@@H]2O[C@H](COP(=O)([O-])OP(=O)(O)OC[C@H]3O[C@@H](n4cnc5c4ncn4ccnc54)[C@H](O)[C@@H]3O)[C@@H](O)[C@H]2O)c1; assay: fluorescence hydrolase assay, Km determination; format: biochemical, Homo sapiens
T2 construct: recombinant human His-tagged CD38 protein

- Kd (CD38 (rhCD38); read-out: Kd): 46.3 ± 9.8 µM
Compound: Nc1nc2c(ncn2[C@@H]2O[C@@H]3COP(=O)(S)O[C@H]4[C@@H](O)[C@H](n5cnc6c(N)ncnc65)O[C@@H]4COP(=O)(S)O[C@@H]2[C@@H]3O)c(=O)[nH]1 (stereo partly drawn) [2′3′-cG^sA^sMP]

Compound: NC(=O)c1ccc[n+]([C@@H]2O[C@H](COP(=O)([O-])OP(=O)(O)OC[C@H]3O[C@@H](n4cnc5c(N)ncnc54)[C@H](O)[C@@H]3O)[C@@H](O)[C@H]2O)c1 [β-NAD]
- Kd (CD38 (rhCD38)): 28 ± 9.4 µM

Compound: CD38 (rhCD38) (Homo sapiens)
- Km [1]: 56.2 ± 8.9 x 10^−6 M
